Target: T1, human full-length recombinant PKC βII (Homo sapiens, UniProt P05771)
T1 construct: Active human full-length recombinant PKC βII; purchased Invitrogen GmbH, Darmstadt, Germany
Assay: Determination of PKC βII inhibition (Caliper mobility-shift kinase assay, Fluorescein-RFARKGSLRQKNV peptide substrate)
Assay type: biochemical
Conditions: example compounds at a final concentration of 1.14 μM (±0.15 μM)
Summary of the method: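 Compounds were tested at 1.14 μM final. Enzyme was activated by PS, DAG and CaCl2 in Hepes pH 7.4 with MgCl2, with substrate 3 μM and ATP 120 μM as pre-mix concentrations. After 60 min at 32 °C and an EDTA stop, Caliper separation gave fractional turnover, which was normalised to no-compound and no-enzyme controls.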

T1 sequence (P05771 1-673 isoform P05771-2): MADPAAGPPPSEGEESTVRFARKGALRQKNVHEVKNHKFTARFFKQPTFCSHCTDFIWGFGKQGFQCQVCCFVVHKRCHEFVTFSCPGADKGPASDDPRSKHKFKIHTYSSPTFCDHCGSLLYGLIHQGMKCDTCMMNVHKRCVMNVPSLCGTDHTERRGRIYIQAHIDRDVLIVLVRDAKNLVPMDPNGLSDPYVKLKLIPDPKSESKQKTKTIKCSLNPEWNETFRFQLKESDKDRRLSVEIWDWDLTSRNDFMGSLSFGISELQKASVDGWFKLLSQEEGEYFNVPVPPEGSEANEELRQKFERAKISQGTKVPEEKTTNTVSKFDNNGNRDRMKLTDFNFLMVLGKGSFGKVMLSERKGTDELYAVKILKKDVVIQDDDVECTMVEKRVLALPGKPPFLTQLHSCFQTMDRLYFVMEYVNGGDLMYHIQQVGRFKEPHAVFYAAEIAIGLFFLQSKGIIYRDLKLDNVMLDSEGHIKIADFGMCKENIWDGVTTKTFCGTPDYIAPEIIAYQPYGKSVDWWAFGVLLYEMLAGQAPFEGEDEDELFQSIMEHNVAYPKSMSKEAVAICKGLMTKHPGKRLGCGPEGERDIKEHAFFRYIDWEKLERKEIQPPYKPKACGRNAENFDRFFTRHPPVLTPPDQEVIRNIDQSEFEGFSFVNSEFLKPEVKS

inhibition at 1.14 µM | Compound | % Inhibition
76% | Cc1n[nH]c2nc(-c3ccc(O)c(F)c3)cc(C(=O)N3CCNC[C@H]3C(=O)NC(C)(C)C)c12 [Example 325, (S)-1-[6-(3-Fluoro-4-hydroxy-phenyl)-3-methyl-1H-pyrazolo[3,4-b]pyridine-4-carbonyl]-piperazine-2-carboxylic acid tert-butylamide] | 
83% | Cc1n[nH]c2nc(-c3ccc(O)c(F)c3)cc(C(=O)N3CCN[C@@H](C(C)C)C3)c12 [Example 326, [6-(3-Fluoro-4-hydroxy-phenyl)-3-methyl-1H-pyrazolo[3,4-b]pyridin-4-yl]-((S)-3-isopropyl-piperazin-1-yl)-methanone] | 
92% | Cc1n[nH]c2nc(-c3ccc(O)c(F)c3)cc(C(=O)N3CCNCC3c3cccnc3)c12 (stereo not shown) [Example 327, [6-(3-Fluoro-4-hydroxy-phenyl)-3-methyl-1H-pyrazolo[3,4-b]pyridin-4-yl]-(2-pyridin-3-yl-piperazin-1-yl)-methanone] | 
80% | COC(=O)[C@H]1CNCCN1C(=O)c1cc(-c2ccc(O)c(F)c2)nc2[nH]nc(C)c12 [Example 328, (R)-1-[6-(3-Fluoro-4-hydroxy-phenyl)-3-methyl-1H-pyrazolo[3,4-b]pyridine-4-carbonyl]-piperazine-2-carboxylic acid methyl ester] | 
72% | Cc1n[nH]c2nc(-c3ccc(O)c(F)c3)cc(C(=O)N3CCC4(CC3)CNC4)c12 [Example 329, (2,7-Diaza-spiro[3.5]non-7-yl)-[6-(3-fluoro-4-hydroxy-phenyl)-3-methyl-1H-pyrazolo[3,4-b]pyridin-4-yl]-methanone] | 
45% | Cc1n[nH]c2nc(-c3ccc(O)c(F)c3)cc(C(=O)N3CC4(CCNCC4)c4ccccc43)c12 [Example 330, (1,2-Dihydro-5-spiro[3H-indole-3,4′-piperidin]-1-yl)-[6-(3-fluoro-4-hydroxy-phenyl)-3-methyl-1H-pyrazolo[3,4-b]pyridin-4-yl]-methanone] | 
41% | Cc1n[nH]c2nc(-c3ccc(O)c(F)c3)cc(C(=O)N(C)C3CCN(C)CC3)c12 [Example 331, 6-(3-Fluoro-4-hydroxy-phenyl)-3-methyl-1H-pyrazolo[3,4-b]pyridine-4-carboxylic acid methyl-(1-methyl-piperidin-4-yl)-amide] | 
63% | CCN1CCCC(NC(=O)c2cc(-c3ccc(O)c(F)c3)nc3[nH]nc(C)c23)C1 (stereo not shown) [Example 332, 6-(3-Fluoro-4-hydroxy-phenyl)-3-methyl-1H-pyrazolo[3,4-b]pyridine-4-carboxylic acid (1-ethyl-piperidin-3-yl)-amide] | 
53% | Cc1n[nH]c2nc(-c3ccc(O)c(F)c3)cc(C(=O)N3C[C@]4(C)CN(C)C[C@](C)(C3)C4O)c12 (stereo partly drawn) [Example 334, [6-(3-Fluoro-4-hydroxy-phenyl)-3-methyl-1H-pyrazolo[3,4-b]pyridin-4-yl]-((1S,5R)-9-hydroxy-1,5,7-trimethyl-3,7-diaza-bicyclo[3.3.1]non-3-yl)-methanone] | 
61% | Cc1n[nH]c2nc(-c3ccc(O)c(F)c3)cc(C(=O)N(C)C3CCNCC3)c12 [Example 335, 6-(3-Fluoro-4-hydroxy-phenyl)-3-methyl-1H-pyrazolo[3,4-b]pyridine-4-carboxylic acid methyl-piperidin-4-yl-amide] | 

Continued, compound first:

Compound | inhibition at 1.14 µM | % Inhibition
Cc1n[nH]c2nc(-c3ccc(O)c(F)c3)cc(C(=O)NC3CC4CCC(C3)N4C)c12 (stereo not shown) [Example 301, 6-(3-Fluoro-4-hydroxy-phenyl)-3-methyl-1H-pyrazolo[3,4-b]pyridine-4-carboxylic acid (8-methyl-8-aza-bicyclo[3.2.1]oct-3-yl)-amide] | 63% | 
Cc1n[nH]c2nc(-c3ccc(O)c(F)c3)cc(C(=O)NC3CNC3)c12 [Example 302, 6-(3-Fluoro-4-hydroxy-phenyl)-3-methyl-1H-pyrazolo[3,4-b]pyridine-4-carboxylic acid azetidin-3-ylamide] | 82% | 
Cc1n[nH]c2nc(-c3ccc(O)c(F)c3)cc(C(=O)N3CCNC(C)C3)c12 (stereo not shown) [Example 303, [6-(3-Fluoro-4-hydroxy-phenyl)-3-methyl-1H-pyrazolo[3,4-b]pyridin-4-yl]-(3-methyl-piperazin-1-yl)-methanone] | 93% | 
Cc1n[nH]c2nc(-c3ccc(O)c(F)c3)cc(C(=O)N3CCC(N)CC3)c12 [Example 304, (4-Amino-piperidin-1-yl)-[6-(3-fluoro-4-hydroxy-phenyl)-3-methyl-1H-pyrazolo[3,4-b]pyridin-4-yl]-methanone] | 91% | 
Cc1n[nH]c2nc(-c3ccc(O)c(F)c3)cc(C(=O)N[C@@H]3CCCNC3)c12 [Example 305, 6-(3-Fluoro-4-hydroxy-phenyl)-3-methyl-1H-pyrazolo[3,4-b]pyridine-4-carboxylic acid (R)-piperidin-3-ylamide] | 83% | 
Cc1n[nH]c2nc(-c3ccc(O)c(F)c3)cc(C(=O)N3C[C@H]4CNC[C@H]4C3)c12 [Example 306, [6-(3-Fluoro-4-hydroxy-phenyl)-3-methyl-1H-pyrazolo[3,4-b]pyridin-4-yl]-(3aR,6aS)-hexahydro-pyrrolo[3,4-c]pyrrol-2-yl-methanone] | 76% | 
Cc1n[nH]c2nc(-c3ccc(O)c(F)c3)cc(C(=O)N3CCC4CNCC43)c12 (stereo not shown) [Example 308, [6-(3-Fluoro-4-hydroxy-phenyl)-3-methyl-1H-pyrazolo[3,4-b]pyridin-4-yl]-(hexahydro-pyrrolo[3,4-b]pyrrol-1-yl)-methanone] | 60% | 
Cc1n[nH]c2nc(-c3ccc(O)c(F)c3)cc(C(=O)N[C@H]3C[C@H](N)C3)c12 [Example 309, 6-(3-Fluoro-4-hydroxy-phenyl)-3-methyl-1H-pyrazolo[3,4-b]pyridine-4-carboxylic acid (trans-3-amino-cyclobutyl)-amide] | 71% | 
Cc1n[nH]c2nc(-c3ccc(O)c(F)c3)cc(C(=O)N3C[C@H]4CC[C@@H](C3)C4N)c12 (stereo partly shown) [Example 310, (8-Amino-3-aza-bicyclo[3.2.1]oct-3-yl)-[6-(3-fluoro-4-hydroxy-phenyl)-3-methyl-1H-pyrazolo[3,4-b]pyridin-4-yl]-methanone] | 91% | 
Cc1n[nH]c2nc(-c3ccc(O)c(F)c3)cc(C(=O)N3CCNC[C@@H]3C)c12 [Example 313, [6-(3-Fluoro-4-hydroxy-phenyl)-3-methyl-1H-pyrazolo[3,4-b]pyridin-4-yl]-((S)-2-methyl-piperazin-1-yl)-methanone] | 99% | 
Cc1n[nH]c2nc(-c3ccc(O)c(F)c3)cc(C(=O)N3CCNC(C(F)(F)F)C3)c12 (stereo not shown) [Example 314, [6-(3-Fluoro-4-hydroxy-phenyl)-3-methyl-1H-pyrazolo[3,4-b]pyridin-4-yl]-(3-trifluoromethyl-piperazin-1-yl)-methanone] | 35% | 
Cc1n[nH]c2nc(-c3ccc(O)c(F)c3)cc(C(=O)N3CC(N)C3)c12 [Example 315, (3-Amino-azetidin-1-yl)-[6-(3-fluoro-4-hydroxy-phenyl)-3-methyl-1H-pyrazolo[3,4-b]pyridin-4-yl]-methanone] | 62% | 
Cc1n[nH]c2nc(-c3ccc(O)c(F)c3)cc(C(=O)NCCC3CCCN3C)c12 (stereo not shown) [Example 316, 6-(3-Fluoro-4-hydroxy-phenyl)-3-methyl-1H-pyrazolo[3,4-b]pyridine-4-carboxylic acid [2-(1-methyl-pyrrolidin-2-yl)-ethyl]-amide] | 51% | 
Cc1n[nH]c2nc(-c3ccc(O)c(F)c3)cc(C(=O)NC3CC4CCC(C3)N4C)c12 [Example 318, 6-(3-Fluoro-4-hydroxy-phenyl)-3-methyl-1H-pyrazolo[3,4-b]pyridine-4-carboxylic acid (3R)-8-methyl-8-aza-bicyclo[3.2.1]oct-3-yl)-amide] |  | 61%
Cc1n[nH]c2nc(-c3ccc(O)c(F)c3)cc(C(=O)NC3CCN(C)CC3)c12 [Example 319, 6-(3-Fluoro-4-hydroxy-phenyl)-3-methyl-1H-pyrazolo[3,4-b]pyridine-4-carboxylic acid (1-methyl-piperidin-4-yl)-amide] | 59% | 
Cc1n[nH]c2nc(-c3ccc(O)c(F)c3)cc(C(=O)N3CCNC[C@@H]3C(C)C)c12 [Example 320, [6-(3-Fluoro-4-hydroxy-phenyl)-3-methyl-1H-pyrazolo[3,4-b]pyridin-4-yl]-((S)-2-isopropyl-piperazin-1-yl)-methanone] | 72% | 
Cc1n[nH]c2nc(-c3ccc(O)c(F)c3)cc(C(=O)N3CCNC[C@H]3Cc3ccccc3)c12 [Example 321, ((R)-2-Benzyl-piperazin-1-yl)-[6-(3-fluoro-4-hydroxy-phenyl)-3-methyl-1H-pyrazolo[3,4-b]pyridin-4-yl]-methanone] | 84% | 
Cc1n[nH]c2nc(-c3ccc(O)c(F)c3)cc(C(=O)N3CC[C@@H](C4(N)CC4)C3)c12 [Example 322, [(R)-3-(1-Amino-cyclopropyl)-pyrrolidin-1-yl]-[6-(3-fluoro-4-hydroxy-phenyl)-3-methyl-1H-pyrazolo[3,4-b]pyridin-4-yl]-methanone] | 68% | 
Cc1n[nH]c2nc(-c3ccc(O)c(F)c3)cc(C(=O)N3CCC4(CNCCO4)C3)c12 (stereo not shown) [Example 323, [6-(3-Fluoro-4-hydroxy-phenyl)-3-methyl-1H-pyrazolo[3,4-b]pyridin-4-yl]-(6-oxa-2,9-diaza-spiro[4.5]dec-2-yl)-methanone] | 42% | 
Cc1n[nH]c2nc(-c3ccc(O)c(F)c3)cc(C(=O)N3CCCC4CNCCC43)c12 (stereo not shown) [Example 324, [6-(3-Fluoro-4-hydroxy-phenyl)-3-methyl-1H-pyrazolo[3,4-b]pyridin-4-yl]-(octahydro-[1,6]naphthyridin-1-yl)-methanone] | 69% | 
Cc1n[nH]c2nc(-c3ccc(O)c(F)c3)cc(C(=O)NC3CN4CCC3CC4)c12 (stereo not shown) [Example 333, 6-(3-Fluoro-4-hydroxy-phenyl)-3-methyl-1H-pyrazolo[3,4-b]pyridine-4-carboxylic acid (1-aza-bicyclo[2.2.2]oct-3-yl)-amide] | 67% | 

From patent US8686150B2 (Sanofi, priority 2011, dated 2014)
